Measured values as given in ChEMBL document CHEMBL5230155, “Recent contributions of quinolines to antimalarial and anticancer drug discovery research” (Eur J Med Chem, 2021).
pEC50, pIC50: −log10 of the molar value.

How the values were obtained:
HeLa = assay: Antiproliferative activity against human HeLa cells; type: functional, cell-based
MCF7 = assay: Antiproliferative activity against human MCF7 cells; type: functional, cell-based; conditions: Homo sapiens, MCF7
DLD-1 = assay: Antiproliferative activity against human DLD-1 cells; type: functional, cell-based
[1] = biological target: T1, Tyrosine-protein kinase receptor UFO (Homo sapiens, UniProt P30530); assay: Inhibition of AXL (unknown origin)
T1 sequence (P30530 whole entry): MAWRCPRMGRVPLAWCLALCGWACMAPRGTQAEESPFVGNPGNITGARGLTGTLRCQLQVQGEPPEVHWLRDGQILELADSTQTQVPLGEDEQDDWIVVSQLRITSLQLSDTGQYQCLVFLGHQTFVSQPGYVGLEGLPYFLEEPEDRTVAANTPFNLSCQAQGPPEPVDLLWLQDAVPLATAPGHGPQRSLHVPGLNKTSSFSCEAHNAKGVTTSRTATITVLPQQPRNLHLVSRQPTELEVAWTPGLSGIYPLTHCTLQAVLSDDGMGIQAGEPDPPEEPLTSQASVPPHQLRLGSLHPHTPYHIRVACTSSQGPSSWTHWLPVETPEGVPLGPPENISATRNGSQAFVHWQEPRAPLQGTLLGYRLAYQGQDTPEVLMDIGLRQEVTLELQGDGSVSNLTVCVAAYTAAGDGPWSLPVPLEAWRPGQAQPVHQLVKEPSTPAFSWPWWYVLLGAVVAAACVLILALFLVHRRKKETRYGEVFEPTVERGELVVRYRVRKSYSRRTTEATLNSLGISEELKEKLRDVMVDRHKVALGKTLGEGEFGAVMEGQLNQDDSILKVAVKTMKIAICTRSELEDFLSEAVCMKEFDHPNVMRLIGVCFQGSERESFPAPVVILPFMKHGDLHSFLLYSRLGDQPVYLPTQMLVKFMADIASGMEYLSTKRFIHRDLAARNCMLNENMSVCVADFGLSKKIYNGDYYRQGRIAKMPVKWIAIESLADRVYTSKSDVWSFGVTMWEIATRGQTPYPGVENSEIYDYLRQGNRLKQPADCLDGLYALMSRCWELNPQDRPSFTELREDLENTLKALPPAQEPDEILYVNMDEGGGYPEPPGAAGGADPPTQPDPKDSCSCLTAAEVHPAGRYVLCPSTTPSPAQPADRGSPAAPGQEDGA

Plasmodium falciparum [2] = tested on: Plasmodium falciparum
Description: Antimalarial activity against CQ-sensitive Plasmodium falciparum NF54

NCI-H460 = assay: Antiproliferative activity against human NCI-H460 cells; type: functional, cell-based
PANC-1 = assay: Antiproliferative activity against human PANC-1 cells; type: functional, cell-based
HT-29 = assay: Antiproliferative activity against human HT-29 cells; type: functional, cell-based
A-375 = assay: Antiproliferative activity against human A-375 cells; type: functional, cell-based
[3] = Inhibition of PI3K (unknown origin); set-up: species or system Homo sapiens
Plasmodium falciparum [4] = assay: Antimalarial activity against CQ-sensitive Plasmodium falciparum 3D7; type: functional, organism-based
[5] = Cytotoxicity against african green monkey Vero cells; type: toxicity, cell-based; conditions: African green monkey (Chlorocebus sabaeus)
[6] = Selectivity index, ratio of IC50 for African green monkey Vero cells to IC50 for CQ sensitive Plasmodium falciparum 3D7; type: toxicity; conditions: read-out: Ratio IC50
Plasmodium falciparum [7] = assay: Antimalarial activity against CQ-resistant Plasmodium falciparum RKL-9; type: functional, organism-based
Plasmodium falciparum [8] = assay: Antimalarial activity against Plasmodium falciparum 3D7; type: functional, organism-based
Plasmodium falciparum [9] = assay: Antimalarial activity against multidrug resistant Plasmodium falciparum Dd2; type: functional, organism-based
Plasmodium falciparum [10] = assay: Antimalarial activity against multidrug resistant Plasmodium falciparum K1; type: functional, organism-based
HCT-116 = assay: Cytotoxicity against human HCT-116 cells; type: functional, cell-based
RPMI-8226 [11] = assay: Cytotoxicity against human RPMI-8226 cells; type: functional, cell-based
RPMI-8226 [12] = assay: Induction of apoptosis in human RPMI-8226 cells assessed as fold increase in cytochrome c level; type: functional
RPMI-8226 [13] = assay: Induction of apoptosis in human RPMI-8226 cells assessed as fold increase in caspase-3 level; type: functional
Hep 3B2 = assay: Cytotoxicity against human Hep3B cells assessed as relative value at 15 uM after 48 hrs by MTS method; type: functional
[14] = biological target: Alkaline phosphatase, germ cell type (Homo sapiens, UniProt P10696); assay: Inhibition of human germ cell alkaline phosphatase
Sequence of Alkaline phosphatase, germ cell type (P10696 whole entry): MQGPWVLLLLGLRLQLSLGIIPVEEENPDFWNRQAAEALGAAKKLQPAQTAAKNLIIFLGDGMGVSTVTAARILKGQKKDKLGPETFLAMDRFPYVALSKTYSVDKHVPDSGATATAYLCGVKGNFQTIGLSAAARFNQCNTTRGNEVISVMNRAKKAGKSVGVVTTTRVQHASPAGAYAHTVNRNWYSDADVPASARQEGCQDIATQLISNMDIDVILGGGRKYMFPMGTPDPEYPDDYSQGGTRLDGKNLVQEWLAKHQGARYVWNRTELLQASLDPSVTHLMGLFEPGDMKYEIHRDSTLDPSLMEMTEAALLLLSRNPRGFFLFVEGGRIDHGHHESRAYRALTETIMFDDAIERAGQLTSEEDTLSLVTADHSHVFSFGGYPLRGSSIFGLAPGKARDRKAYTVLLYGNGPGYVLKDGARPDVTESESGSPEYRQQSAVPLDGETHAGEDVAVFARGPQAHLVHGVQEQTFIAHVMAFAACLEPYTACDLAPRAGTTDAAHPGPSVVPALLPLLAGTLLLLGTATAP

A549 = assay: Cytotoxicity against human A549 cells; type: functional, cell-based
Hemozoin = assay: Inhibition of beta-hematin formation relative to control; conditions: concentration not given here

CNC(=O)c1sc(N2N=C(c3ccc(C)cc3)CC2c2cc3cc(OC)ccc3nc2Cl)nc1C (centres undefined)
pIC50 (HeLa): 7.42
pIC50 (MCF7): 7.42
pIC50 (DLD-1): 7.42

CCONC(=O)c1sc(N2N=C(c3ccc(C)cc3)CC2c2cc3cc(OC)ccc3nc2Cl)nc1C (centres undefined)
pIC50 (HeLa): 7.42
pIC50 (MCF7): 7.42
pIC50 (DLD-1): 7.42

COc1cc2nccc(Oc3ccc(NC(=O)Nc4ccc(F)cc4F)c(F)c3)c2cc1OC
pIC50 [1]: 6.44

Clc1ccc2c(N3CC(CN4CCCCC4)N=N3)ccnc2c1 (centres undefined) [listing 1 of 2 here]
pIC50 (Plasmodium falciparum [2]): 6.69

Clc1ccc2c(N3CC(CN4CCCCC4)N=N3)ccnc2c1 (centres undefined) [listing 2 of 2 here]
pIC50 (Plasmodium falciparum [2]): 5.34

Clc1ccc2c(N3CC(CN4CCCC4)N=N3)ccnc2c1 (centres undefined)
pIC50 (Plasmodium falciparum [2]): 5.34

COc1nc2ccc(C)cc2cc1Cc1cc(-c2ccccc2)n[nH]c1=O
pIC50 (NCI-H460): 5.66
pIC50 (PANC-1): 5.66
pIC50 (HT-29): 5.66
pIC50 (A-375): 5.66

COc1ccc2nc(O)c(/C=C/C(=O)c3ccc(C)cc3)cc2c1
pIC50 (HeLa): 7.42
pIC50 (MCF7): 7.42
pIC50 (DLD-1): 7.42

COC[C@H]1OC(=O)c2coc3c2[C@@]1(C)C1=C(C3=O)[C@@H]2CCC(=O)[C@@]2(C)C[C@H]1OC(C)=O [WORTMANNIN]
pIC50 [3]: 6.12

O=C(Cn1cc(COc2ccc(Br)cc2)nn1)NCCCNc1ccnc2cc(Cl)ccc12
pIC50 (Plasmodium falciparum [4]): 7.41
pIC50 [5]: < 5.30
selectivity ratio [6]: 714
pIC50 (Plasmodium falciparum [7]): 7.80

C[C@@H]1CCC2[C@@H](C)[C@H](OC(=O)CCC(=O)NCCNc3ccnc4cc(Cl)ccc34)O[C@@H]3O[C@@]4(C)CC[C@@H]1[C@@]23OO4 (some centres undefined)
pEC50 (Plasmodium falciparum [8]): 9.11
pEC50 (Plasmodium falciparum [9]): 9.11
pEC50 (Plasmodium falciparum [10]): 9.11

CSc1nc2ccccc2cc1/C=[N+](\[O-])c1ccccc1
pIC50 (HCT-116): 6.35
pIC50 (RPMI-8226 [11]): 6.35
fold change (FC) (RPMI-8226 [12]): 4
fold change (FC) (RPMI-8226 [13]): 12

O=C(Cn1cc(COc2ccc(Br)cc2)nn1)NCCNc1ccnc2cc(Cl)ccc12
pIC50 (Plasmodium falciparum [4]): 7.41
pIC50 [5]: < 5.30
selectivity ratio [6]: 714
pIC50 (Plasmodium falciparum [7]): 8.53

COc1cc2c(Oc3ccc(NS(=O)(=O)c4ccccc4OC(F)(F)F)cc3F)ccnc2cc1OCCCN1CCN(C)CC1
pIC50 [1]: 7.57

CC(=O)c1cccc(C#Cc2c(C3CC3)nc3ccccc3c2-c2ccc(F)cc2)c1
pIC50 [3]: 6.35

C#CCCCC(C(=O)NCCOC(=O)CCC(=O)O[C@@H]1O[C@@H]2O[C@@]3(C)CC[C@H]4[C@H](C)CCC([C@H]1C)[C@@]24OO3)c1ccnc2cc(Cl)ccc12 (some centres undefined)
pEC50 (Plasmodium falciparum [8]): 9.11
pEC50 (Plasmodium falciparum [9]): 9.11
pEC50 (Plasmodium falciparum [10]): 9.11

[O-]/[N+](=C\c1cc2ccccc2nc1SCc1ccccc1)c1ccccc1
pIC50 (HCT-116): 6.35
pIC50 (RPMI-8226 [11]): 6.35
fold change (FC) (RPMI-8226 [12]): 4
fold change (FC) (RPMI-8226 [13]): 12

Cc1ccc2cccc(OS(=O)(=O)c3ccc(CBr)cc3)c2n1
fold change (FC) (Hep 3B2): 0.25

C#CCCCN(CCNc1ccnc2cc(Cl)ccc12)C(=O)CCC(=O)O[C@@H]1O[C@@H]2O[C@@]3(C)CC[C@H]4[C@H](C)CCC([C@H]1C)[C@@]24OO3 (some centres undefined)
pEC50 (Plasmodium falciparum [8]): 9.11
pEC50 (Plasmodium falciparum [9]): 9.11
pEC50 (Plasmodium falciparum [10]): 9.11

Clc1ccc2c(N3CC(CN4CCOCC4)N=N3)ccnc2c1 (centres undefined)
pIC50 (Plasmodium falciparum [2]): 6.69

COc1cc2c(Oc3ccc(NS(=O)(=O)c4c(F)cccc4F)cc3F)ccnc2cc1OCCCN1CCN(C)CC1
pIC50 [1]: 7.57

C[C@@H]1CC[C@H]2[C@@H](C)C(=O)O[C@@H]3O[C@@]4(C)CC[C@@H]1[C@]32OO4 [ARTEMISININ]
pEC50 (Plasmodium falciparum [8]): 8.27
pEC50 (Plasmodium falciparum [9]): 8.27
pEC50 (Plasmodium falciparum [10]): 8.27

O=C(Nc1nc2ccccc2s1)c1cc(O)nc2ccc(O)cc12
pIC50 [14]: > 7.12

NC(=O)c1cnc2ccc(-c3cnc4ccccc4c3)cc2c1Nc1ccc(N2CCNCC2)c(C(F)(F)F)c1
GI50 (HCT-116): 2800 nM
GI50 (A549): 2800 nM

COc1nc2ccccc2cc1/C=[N+](\[O-])c1ccccc1
pIC50 (HCT-116): 6.35
pIC50 (RPMI-8226 [11]): 6.35
fold change (FC) (RPMI-8226 [12]): 4
fold change (FC) (RPMI-8226 [13]): 12

COc1ccc(C(=O)/C=C/c2cc3ccccc3nc2Cl)cc1OC
inhibition (Hemozoin): 61.3%
